From patent US11524938B2, “Aromatic sulfonamide derivatives” (Bayer Pharma Aktiengesellschaft, priority 2016, dated 2022)

Target: T1, human P2X4 (Homo sapiens, UniProt Q99571)
T1 sequence (Q99571 1-388): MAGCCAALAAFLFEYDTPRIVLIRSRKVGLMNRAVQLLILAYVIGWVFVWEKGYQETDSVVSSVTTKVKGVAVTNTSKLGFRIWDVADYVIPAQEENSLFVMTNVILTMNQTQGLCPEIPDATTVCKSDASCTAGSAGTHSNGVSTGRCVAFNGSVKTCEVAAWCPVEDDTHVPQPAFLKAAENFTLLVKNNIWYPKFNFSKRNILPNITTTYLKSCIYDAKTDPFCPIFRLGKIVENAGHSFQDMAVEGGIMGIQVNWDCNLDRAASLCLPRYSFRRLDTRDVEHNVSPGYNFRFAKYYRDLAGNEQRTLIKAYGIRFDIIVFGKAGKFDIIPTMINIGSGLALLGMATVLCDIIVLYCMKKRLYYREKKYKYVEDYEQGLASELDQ
Test: Human P2X4 HEK Cell FLIPR Assay
Type: cell-based
Conditions: agonist Bz-ATP at EC80; for Emax: HEK293, HEK293 cells, percentage of maximal inhibition, read-out: Human P2X4 HEK Cells (FLIPR Assay) avg Efficacy [%]; for IC50: HEK293 cells, individual values listed where some fall outside detection range
Summary of the method: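 Calcium flux read by FLIPR for 120 sec after Bz-ATP challenge at EC80 (established each assay day), following 30 min room-temperature compound preincubation in dye-loaded stable human P2X4 HEK293 cells. Peak RFU over basal normalized to agonist control; IC50, maximal inhibition and Hill coefficient from triplicate means.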

SMILES | Emax [%] | IC50 [nM]
N#Cc1csc(-c2ccc(NC(=O)Cc3ccccc3Cl)cc2S(N)(=O)=O)n1 [Example 428, 2-(2-Chlorophenyl)-N-[4-(4-cyano-1,3-thiazol-2-yl)-3-sulfamoylphenyl]acetamide] | 57 | 27
NS(=O)(=O)c1cc(NC(=O)Cc2ccc(C(F)F)cc2)ccc1-c1cncc(C(F)(F)F)c1 [Example 458, 2-[4-(Difluoromethyl)phenyl]-N-{3-sulfamoyl-4-[5-(trifluoromethyl)pyridin-3-yl]phenyl}acetamide] | 85 | 1080
COCCn1cc(-c2ccc(NC(=O)Cc3c(F)cccc3Cl)cc2S(N)(=O)=O)cn1 [Example 350, 2-(2-Chloro-6-fluorophenyl)-N-{4-[1-(2-methoxyethyl)-1H-pyrazol-4-yl]-3-sulfamoylphenyl}acetamide] | 87 | 49
NS(=O)(=O)c1cc(NC(=O)Cc2ccc(F)cc2F)ccc1-c1cncc(C(F)(F)F)c1 [Example 450, 2-(2,4-Difluorophenyl)-N-{3-sulfamoyl-4-[5-(trifluoromethyl)pyridin-3-yl]phenyl}acetamide] | 72 | 148
NS(=O)(=O)c1cc(NC(=O)Cc2ccc(Cl)cc2Cl)ccc1-n1cc(C(F)(F)F)nn1 [Example 417, 2-(2,4-Dichlorophenyl)-N-{3-sulfamoyl-4-[4-(trifluoromethyl)-1H-1,2,3-triazol-1-yl]phenyl}acetamide] | 68 | 51
CC(C)(O)c1cccc(-c2ccc(NC(=O)Cc3ccccc3Cl)cc2S(N)(=O)=O)c1 [Example 342, 2-(2-Chlorophenyl)-N-[3′-(2-hydroxypropan-2-yl)-2-sulfamoylbiphenyl-4-yl]acetamide] | 101 | 41
NS(=O)(=O)c1cc(NC(=O)Cc2ccccc2Cl)ccc1-c1cnn(C(F)F)c1C(F)(F)F [Example 492, 2-(2-Chlorophenyl)-N-{4-[1-(difluoromethyl)-5-(trifluoromethyl)-1H-pyrazol-4-yl]-3-sulfamoylphenyl}acetamide] | 92 | 531
N#Cc1cnn(-c2ccc(NC(=O)Cc3c(F)cc(F)cc3Cl)cc2S(N)(=O)=O)c1 [Example 217, 2-(2-Chloro-4,6-difluorophenyl)-N-[4-(4-cyano-1H-pyrazol-1-yl)-3-sulfamoyl-phenyl]acetamide] | 84 | 51
NS(=O)(=O)c1cc(NC(=O)C(O)c2ccccc2Cl)ccc1-c1cnn(C(F)F)c1 (centres unmarked) [Example 324, 2-(2-Chlorophenyl)-N-{4-[1-(difluoromethyl)-1H-pyrazol-4-yl]-3-sulfamoylphenyl}-2-hydroxyethanamide] | 59 | 3050
NS(=O)(=O)c1cc(NC(=O)Cc2cc(C(F)(F)F)ccc2Cl)c(C(F)(F)F)cc1-n1cc(F)cn1 [Example 537, 2-[2-Chloro-5-(trifluoromethyl)phenyl]-N-[4-(4-fluoro-1H-pyrazol-1-yl)-5-sulfamoyl-2-(trifluoromethyl)phenyl]acetamide] | 95 | 3620
NS(=O)(=O)c1cc(NC(=O)Cc2ccccc2OC(F)F)ccc1-n1cc(Cl)cn1 [Example 91, N-[4-(4-Chloro-1H-pyrazol-1-yl)-3-sulfamoylphenyl]-2-[2-(difluoromethoxy)-phenyl]acetamide] | 94 | 169
NS(=O)(=O)c1cc(NC(=O)Cc2ccccc2Cl)ccc1-c1noc(C2CC2)n1 [Example 520, 2-(2-Chlorophenyl)-N-[4-(5-cyclopropyl-1,2,4-oxadiazol-3-yl)-3-sulfamoylphenyl]acetamide] | 76 | 43
NS(=O)(=O)c1cc(NC(=O)Cc2ccccc2Cl)ccc1-n1ncc(C(F)(F)F)n1 [Example 241, 2-(2-Chlorophenyl)-N-{3-sulfamoyl-4-[4-(trifluoromethyl)-2H-1,2,3-triazol-2-yl]-phenyl}acetamide] | 92 | 48
